Assay results reported in paper PMC10408569, “Recruitment of hexahydroquinoline as anticancer scaffold targeting inhibition of wild and mutants EGFR (EGFR^WT, EGFR^T790M, and EGFR^L858R)” (Journal of Enzyme Inhibition and Medicinal Chemistry, 2023).

How the values were obtained:
A549/ATCC = assay: NCI-60 anticancer screening (SRB); format: cell-based; conditions: Homo sapiens; A549/ATCC, NSC lung cancer; one dose 10 μM; read-out: Growth Inhibition Percentage (GI %)
IGROV1 = assay: NCI-60 anticancer screening (SRB); format: cell-based; conditions: Homo sapiens, IGROV-1; IGROV1, ovarian cancer; one dose 10 μM; read-out: Growth Inhibition Percentage (GI %)
HCC-2998 = assay: NCI-60 anticancer screening (SRB); format: cell-based; conditions: Homo sapiens; HCC-2998, colon cancer; one dose 10 μM; read-out: Growth Inhibition Percentage (GI %)
EKVX = assay: NCI-60 anticancer screening (SRB); format: cell-based; conditions: Homo sapiens, NSC lung cancer, one dose 10 μM, read-out: Growth Inhibition Percentage (GI %)
NCI 60 cancer cell lines = assay: NCI-60 anticancer screening (SRB), whole panel; format: cell-based, human; conditions: mean across the NCI-60 panel; one dose 10 μM
DU-145 = assay: NCI-60 anticancer screening (SRB); format: cell-based; conditions: Homo sapiens; DU-145, prostate cancer; one dose 10 μM; read-out: Growth Inhibition Percentage (GI %)
UO-31 = assay: NCI-60 anticancer screening (SRB); format: cell-based; conditions: Homo sapiens; UO-31, renal cancer; one dose 10 μM; read-out: Growth Inhibition Percentage (GI %)
CAKI-1 = assay: NCI-60 anticancer screening (SRB); format: cell-based; conditions: Homo sapiens; CAKI-1, renal cancer; one dose 10 μM; read-out: Growth Inhibition Percentage (GI %)
HCT-15 = assay: NCI-60 anticancer screening (SRB); format: cell-based; conditions: Homo sapiens; HCT-15, colon cancer; one dose 10 μM; read-out: Growth Inhibition Percentage (GI %)
NCI-H322M = assay: NCI-60 anticancer screening (SRB); format: cell-based; conditions: Homo sapiens, NSC lung cancer, one dose 10 μM, read-out: Growth Inhibition Percentage (GI %)
SK-MEL-2 = assay: NCI-60 anticancer screening (SRB); format: cell-based; conditions: Homo sapiens; SK-MEL-2, melanoma; one dose 10 μM; read-out: Growth Inhibition Percentage (GI %)
MALME-3M = assay: NCI-60 anticancer screening (SRB); format: cell-based; conditions: Homo sapiens, melanoma, one dose 10 μM, read-out: Growth Inhibition Percentage (GI %)
SNB-19 = assay: NCI-60 anticancer screening (SRB); format: cell-based; conditions: Homo sapiens; SNB-19, CNS cancer; one dose 10 μM; read-out: Growth Inhibition Percentage (GI %)
NCI-H226 = assay: NCI-60 anticancer screening (SRB); format: cell-based; conditions: Homo sapiens; NCI-H226, NSC lung cancer; one dose 10 μM; read-out: Growth Inhibition Percentage (GI %)
COLO 205 = assay: NCI-60 anticancer screening (SRB); format: cell-based; conditions: Homo sapiens; COLO 205, colon cancer; one dose 10 μM; read-out: Growth Inhibition Percentage (GI %)
NCI/ADR-RES = assay: NCI-60 anticancer screening (SRB); format: cell-based; conditions: Homo sapiens, ovarian cancer, one dose 10 μM, read-out: Growth Inhibition Percentage (GI %)
SNB-75 = assay: NCI-60 anticancer screening (SRB); format: cell-based; conditions: Homo sapiens; SNB-75, CNS cancer; one dose 10 μM; read-out: Growth Inhibition Percentage (GI %)
U251 = assay: NCI-60 anticancer screening (SRB); format: cell-based; conditions: Homo sapiens, U-251; U251, CNS cancer; one dose 10 μM; read-out: Growth Inhibition Percentage (GI %)
BT-549 = assay: NCI-60 anticancer screening (SRB); format: cell-based; conditions: Homo sapiens; BT-549, breast cancer; one dose 10 μM; read-out: Growth Inhibition Percentage (GI %)
HOP-62 = assay: NCI-60 anticancer screening (SRB); format: cell-based; conditions: Homo sapiens; HOP-62, NSC lung cancer; one dose 10 μM; read-out: Growth Inhibition Percentage (GI %)
MDA-MB-435 = assay: NCI-60 anticancer screening (SRB); format: cell-based; conditions: Homo sapiens; MDA-MB-435, melanoma; one dose 10 μM; read-out: Growth Inhibition Percentage (GI %)
786-0 = assay: NCI-60 anticancer screening (SRB); format: cell-based; conditions: Homo sapiens; 786-0, renal cancer; one dose 10 μM; read-out: Growth Inhibition Percentage (GI %)
UACC-257 = assay: NCI-60 anticancer screening (SRB); format: cell-based; conditions: Homo sapiens; UACC-257, melanoma; one dose 10 μM; read-out: Growth Inhibition Percentage (GI %)
HL-60(TB) = assay: NCI-60 anticancer screening (SRB); format: cell-based; conditions: Homo sapiens, leukemia, one dose 10 μM, read-out: Growth Inhibition Percentage (GI %)
OVCAR-8 = assay: NCI-60 anticancer screening (SRB); format: cell-based; conditions: Homo sapiens; OVCAR-8, ovarian cancer; one dose 10 μM; read-out: Growth Inhibition Percentage (GI %)
MDA-MB-231 = assay: NCI-60 anticancer screening (SRB); format: cell-based; conditions: Homo sapiens; MDA-MB-231, breast cancer; one dose 10 μM; read-out: Growth Inhibition Percentage (GI %)
MDA-MB-468 = assay: NCI-60 anticancer screening (SRB); format: cell-based; conditions: Homo sapiens; MDA-MB-468, breast cancer; one dose 10 μM; read-out: Growth Inhibition Percentage (GI %)
MOLT-4 = assay: NCI-60 anticancer screening (SRB); format: cell-based; conditions: Homo sapiens; MOLT-4, leukemia; one dose 10 μM; read-out: Growth Inhibition Percentage (GI %)
KM 12 = assay: NCI-60 anticancer screening (SRB); format: cell-based; conditions: Homo sapiens, KM12; KM 12, colon cancer; one dose 10 μM; read-out: Growth Inhibition Percentage (GI %)
OVCAR-5 = assay: NCI-60 anticancer screening (SRB); format: cell-based; conditions: Homo sapiens; OVCAR-5, ovarian cancer; one dose 10 μM; read-out: Growth Inhibition Percentage (GI %)
OVCAR-3 = assay: NCI-60 anticancer screening (SRB); format: cell-based; conditions: Homo sapiens; OVCAR-3, ovarian cancer; one dose 10 μM; read-out: Growth Inhibition Percentage (GI %)
NCI-H522 = assay: NCI-60 anticancer screening (SRB); format: cell-based; conditions: Homo sapiens; NCI-H522, NSC lung cancer; one dose 10 μM; read-out: Growth Inhibition Percentage (GI %)

CCOC(=O)C1=C(N)N(c2ccc(C)cc2)C2=C(C(=O)CC(C)(C)C2)C1c1ccc([N+](=O)[O-])cc1 (racemic) [8j, (±)-Ethyl 2-amino-7,7-dimethyl-1–(4-methylphenyl)-4–(4-nitrophenyl)-5-oxo-1,4,5,6,7,8-hexahydroquinoline-3-carboxylate]
- ((-) = GI % mean less than 10): GI % mean (NCI 60 cancer cell lines)
< 10%: inhibition at 10 µM (A549/ATCC) | inhibition at 10 µM (IGROV1) | inhibition at 10 µM (HCC-2998) | inhibition at 10 µM (EKVX) | inhibition at 10 µM (DU-145) | inhibition at 10 µM (UO-31) | inhibition at 10 µM (CAKI-1) | inhibition at 10 µM (HCT-15) | inhibition at 10 µM (NCI-H322M) | inhibition at 10 µM (SK-MEL-2) | inhibition at 10 µM (MALME-3M) | inhibition at 10 µM (SNB-19) | inhibition at 10 µM (NCI-H226) | inhibition at 10 µM (COLO 205) | inhibition at 10 µM (NCI/ADR-RES) | inhibition at 10 µM (SNB-75) | inhibition at 10 µM (U251) | inhibition at 10 µM (BT-549) | inhibition at 10 µM (HOP-62) | inhibition at 10 µM (MDA-MB-435) | inhibition at 10 µM (786-0) | inhibition at 10 µM (UACC-257) | inhibition at 10 µM (HL-60(TB)) | inhibition at 10 µM (OVCAR-8) | inhibition at 10 µM (MDA-MB-231) | inhibition at 10 µM (MDA-MB-468) | inhibition at 10 µM (MOLT-4) | inhibition at 10 µM (KM 12) | inhibition at 10 µM (OVCAR-5) | inhibition at 10 µM (OVCAR-3) | inhibition at 10 µM (NCI-H522)
270 to 272 °C: melting point

CCOC(=O)C1=C(N)N(c2ccc(Cl)cc2)C2=C(C(=O)CC(C)(C)C2)C1c1ccc([N+](=O)[O-])cc1 (racemic) [8k, (±)-Ethyl2-amino-1–(4-chlorophenyl)-7,7-dimethyl-4–(4-nitrophenyl)-5-oxo-1,4,5,6,7,8-hexahydroquinoline-3-carboxylate]
22%: inhibition at 10 µM (HL-60(TB))
12%: inhibition at 10 µM (OVCAR-8) | inhibition at 10 µM (KM 12)
< 10%: inhibition at 10 µM (IGROV1) | inhibition at 10 µM (HCC-2998) | inhibition at 10 µM (DU-145) | inhibition at 10 µM (NCI-H322M) | inhibition at 10 µM (MALME-3M) | inhibition at 10 µM (SNB-19) | inhibition at 10 µM (COLO 205) | inhibition at 10 µM (SNB-75) | inhibition at 10 µM (U251) | inhibition at 10 µM (BT-549) | inhibition at 10 µM (HOP-62) | inhibition at 10 µM (MDA-MB-435) | inhibition at 10 µM (786-0) | inhibition at 10 µM (UACC-257) | inhibition at 10 µM (MDA-MB-231) | inhibition at 10 µM (OVCAR-5) | inhibition at 10 µM (OVCAR-3)
19%: inhibition at 10 µM (SK-MEL-2)
- ((-) = GI % mean less than 10): GI % mean (NCI 60 cancer cell lines)
18%: inhibition at 10 µM (HCT-15) | inhibition at 10 µM (MDA-MB-468)
15%: inhibition at 10 µM (EKVX) | inhibition at 10 µM (NCI-H226)
198 to 200 °C: melting point
11%: inhibition at 10 µM (A549/ATCC) | inhibition at 10 µM (CAKI-1)
32%: inhibition at 10 µM (UO-31)
27%: inhibition at 10 µM (MOLT-4) | inhibition at 10 µM (NCI-H522)
16%: inhibition at 10 µM (NCI/ADR-RES)
